Among the data in the supplement of paper PMC10307832 are relative viability values, retold here.

What all share (test): relative viability (nuclei count vs DMSO), 5 days (fraction); higher = more cells survive
Compound in the test “VX-702 + Alpelisib”: NC(=O)c1ccc(N(C(N)=O)c2c(F)cccc2F)nc1-c1ccc(F)cc1F [VX-702] + Cc1nc(NC(=O)N2CCC[C@H]2C(N)=O)sc1-c1ccnc(C(C)(C)C(F)(F)F)c1 [Alpelisib] (partner 2 µM)
Put shortly: (§1)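 Relative viability is defined as nuclei in treated wells over nuclei in vehicle wells. Duplicate plates were run and medians reported. Lung cancer cell lines in 1536-well plates were dosed by pin tool one day after seeding, with one drug or with a fixed anchor-drug dose plus five library-drug doses (not always all listed) in √10 steps, and nuclei were counted after 5 days.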

Compound in the test “Dabrafenib + Tozasertib”: CC(C)(C)c1nc(-c2cccc(NS(=O)(=O)c3c(F)cccc3F)c2F)c(-c2ccnc(N)n2)s1 [Dabrafenib] + Cc1cc(Nc2cc(N3CCN(C)CC3)nc(Sc3ccc(NC(=O)C4CC4)cc3)n2)n[nH]1 [Tozasertib] (partner 0.1 µM)
Put shortly:
as §1

Compound in the test “Dabrafenib + AZD7762”: CC(C)(C)c1nc(-c2cccc(NS(=O)(=O)c3c(F)cccc3F)c2F)c(-c2ccnc(N)n2)s1 [Dabrafenib] + NC(=O)Nc1cc(-c2cccc(F)c2)sc1C(=O)N[C@H]1CCCNC1 [AZD7762] (partner 0.2 µM)
Put shortly: as §1

Compound in the test “Dabrafenib + OSI-027”: CC(C)(C)c1nc(-c2cccc(NS(=O)(=O)c3c(F)cccc3F)c2F)c(-c2ccnc(N)n2)s1 [Dabrafenib] + COc1cccc2cc(-c3nc([C@H]4CC[C@H](C(=O)O)CC4)n4ncnc(N)c34)[nH]c12 [OSI-027] (partner 0.5 µM)
Put shortly: as §1

Regarding NCI-H2126, the relative viability with VX-702 + Alpelisib (first compound 0.02 µM) worked out at 0.708; with VX-702 + Alpelisib (first compound 0.2 µM) it was 0.708; in the test with VX-702 + Alpelisib (first compound 0.6325 µM) it was 0.718; with VX-702 + Alpelisib (first compound 2 µM) it was 0.698; in the test with Dabrafenib + Tozasertib (first compound 0.003 µM), 0.809; with Dabrafenib + Tozasertib (first compound 0.009487 µM), 0.865. The relative viability in the test with Dabrafenib + Tozasertib (first compound 0.03 µM) is 0.858; in the test with Dabrafenib + Tozasertib (first compound 0.09487 µM), 0.862; with Dabrafenib + Tozasertib (first compound 0.3 µM) it was 0.882; with Dabrafenib + AZD7762 (first compound 0.003 µM) it was 0.872; in the test with Dabrafenib + AZD7762 (first compound 0.009487 µM) it was 1.11; in the test with Dabrafenib + AZD7762 (first compound 0.03 µM), 1.02. The relative viability is 0.94 in the test with Dabrafenib + AZD7762 (first compound 0.09487 µM); 1.01 with Dabrafenib + AZD7762 (first compound 0.3 µM); 0.492 with Dabrafenib + OSI-027 (first compound 0.003 µM); 0.787 with Dabrafenib + OSI-027 (first compound 0.009487 µM); 0.717 in the test with Dabrafenib + OSI-027 (first compound 0.03 µM); 0.609 in the test with Dabrafenib + OSI-027 (first compound 0.09487 µM). Moreover, the relative viability in the test with Dabrafenib + OSI-027 (first compound 0.3 µM) came out at 0.954.

NCI-H2170: the relative viability with VX-702 + Alpelisib (first compound 0.02 µM) turned out to be 0.801; in the test with VX-702 + Alpelisib (first compound 0.2 µM) it was 0.61; with VX-702 + Alpelisib (first compound 0.6325 µM), 0.757; with VX-702 + Alpelisib (first compound 2 µM), 0.869; with Dabrafenib + Tozasertib (first compound 0.003 µM), 0.805; with Dabrafenib + Tozasertib (first compound 0.009487 µM), 0.811. The relative viability with Dabrafenib + Tozasertib (first compound 0.03 µM) turned out to be 0.632; in the test with Dabrafenib + Tozasertib (first compound 0.09487 µM), 0.62; with Dabrafenib + Tozasertib (first compound 0.3 µM), 0.727; in the test with Dabrafenib + AZD7762 (first compound 0.003 µM) it was 0.282; with Dabrafenib + AZD7762 (first compound 0.009487 µM), 0.841; in the test with Dabrafenib + AZD7762 (first compound 0.03 µM) it was 0.616. The relative viability with Dabrafenib + AZD7762 (first compound 0.09487 µM) amounted to 0.64; with Dabrafenib + AZD7762 (first compound 0.3 µM), 0.745; with Dabrafenib + OSI-027 (first compound 0.003 µM), 0.749; with Dabrafenib + OSI-027 (first compound 0.009487 µM), 0.698; with Dabrafenib + OSI-027 (first compound 0.03 µM) it was 0.589; with Dabrafenib + OSI-027 (first compound 0.09487 µM), 0.745. Besides, the relative viability with Dabrafenib + OSI-027 (first compound 0.3 µM) amounted to 0.684.

For the cell line NCI-H2347, the relative viability with VX-702 + Alpelisib (first compound 0.02 µM) is 1.01; with VX-702 + Alpelisib (first compound 0.2 µM), 1.12; with VX-702 + Alpelisib (first compound 0.6325 µM), 1.05; with VX-702 + Alpelisib (first compound 2 µM) it was 1.14; in the test with Dabrafenib + Tozasertib (first compound 0.009487 µM) it was 0.548; with Dabrafenib + Tozasertib (first compound 0.03 µM), 0.344. Also, the relative viability amounted to 0.621 with Dabrafenib + Tozasertib (first compound 0.09487 µM); 0.496 with Dabrafenib + Tozasertib (first compound 0.3 µM); 0.63 with Dabrafenib + AZD7762 (first compound 0.009487 µM); 0.562 in the test with Dabrafenib + AZD7762 (first compound 0.03 µM); 0.605 in the test with Dabrafenib + AZD7762 (first compound 0.09487 µM); 0.598 with Dabrafenib + AZD7762 (first compound 0.3 µM). For the same cell line, the relative viability came out at 0.514 with Dabrafenib + OSI-027 (first compound 0.009487 µM), 0.254 with Dabrafenib + OSI-027 (first compound 0.03 µM), 0.394 in the test with Dabrafenib + OSI-027 (first compound 0.09487 µM) and 0.416 with Dabrafenib + OSI-027 (first compound 0.3 µM).

With NCI-H2405, the relative viability in the test with VX-702 + Alpelisib (first compound 0.02 µM) worked out at 0.672; in the test with VX-702 + Alpelisib (first compound 0.2 µM), 0.766; in the test with VX-702 + Alpelisib (first compound 0.6325 µM), 0.774; with VX-702 + Alpelisib (first compound 2 µM), 0.949; with Dabrafenib + Tozasertib (first compound 0.009487 µM), 0.799; with Dabrafenib + Tozasertib (first compound 0.09487 µM) it was 0.647. In addition, the relative viability with Dabrafenib + Tozasertib (first compound 0.3 µM) is 0.726; with Dabrafenib + AZD7762 (first compound 0.009487 µM) it was 0.805; in the test with Dabrafenib + AZD7762 (first compound 0.03 µM) it was 0.592; with Dabrafenib + AZD7762 (first compound 0.09487 µM), 0.597; with Dabrafenib + AZD7762 (first compound 0.3 µM) it was 0.598; in the test with Dabrafenib + OSI-027 (first compound 0.009487 µM), 0.696. Besides, the relative viability with Dabrafenib + OSI-027 (first compound 0.09487 µM) was found to be 0.548; in the test with Dabrafenib + OSI-027 (first compound 0.3 µM), 0.626.

As to NCI-H3122, the relative viability is 0.822 in the test with VX-702 + Alpelisib (first compound 0.02 µM); 0.735 in the test with VX-702 + Alpelisib (first compound 0.2 µM); 0.676 in the test with VX-702 + Alpelisib (first compound 0.6325 µM); 0.859 with VX-702 + Alpelisib (first compound 2 µM); 0.427 with Dabrafenib + Tozasertib (first compound 0.003 µM); 0.449 with Dabrafenib + Tozasertib (first compound 0.009487 µM). The relative viability with Dabrafenib + Tozasertib (first compound 0.03 µM) was determined as 0.391; with Dabrafenib + Tozasertib (first compound 0.09487 µM), 0.374; with Dabrafenib + Tozasertib (first compound 0.3 µM), 0.367; with Dabrafenib + AZD7762 (first compound 0.003 µM), 0.508; with Dabrafenib + AZD7762 (first compound 0.009487 µM), 1.03; with Dabrafenib + AZD7762 (first compound 0.03 µM), 1.06. Moreover, the relative viability amounted to 0.986 in the test with Dabrafenib + AZD7762 (first compound 0.09487 µM); 1.07 with Dabrafenib + AZD7762 (first compound 0.3 µM); 0.919 in the test with Dabrafenib + OSI-027 (first compound 0.003 µM); 0.967 with Dabrafenib + OSI-027 (first compound 0.009487 µM); 1.07 with Dabrafenib + OSI-027 (first compound 0.03 µM); 0.925 in the test with Dabrafenib + OSI-027 (first compound 0.09487 µM). Further, the relative viability with Dabrafenib + OSI-027 (first compound 0.3 µM) stood at 1.06.

With PC-3 [JPC-3], the relative viability with VX-702 + Alpelisib (first compound 0.02 µM) is 1.02; in the test with VX-702 + Alpelisib (first compound 0.2 µM), 1.06; with VX-702 + Alpelisib (first compound 0.6325 µM), 1.07; with VX-702 + Alpelisib (first compound 2 µM) it was 1.02; with Dabrafenib + Tozasertib (first compound 0.003 µM), 0.934; with Dabrafenib + Tozasertib (first compound 0.009487 µM) it was 0.957. Moreover, the relative viability in the test with Dabrafenib + Tozasertib (first compound 0.03 µM) is 0.941; with Dabrafenib + Tozasertib (first compound 0.09487 µM), 0.827; with Dabrafenib + Tozasertib (first compound 0.3 µM), 0.929; with Dabrafenib + AZD7762 (first compound 0.009487 µM), 1.02; with Dabrafenib + AZD7762 (first compound 0.03 µM), 0.857; with Dabrafenib + AZD7762 (first compound 0.09487 µM), 1.02. For the same cell line, the relative viability was found to be 1.07 in the test with Dabrafenib + AZD7762 (first compound 0.3 µM); 0.629 with Dabrafenib + OSI-027 (first compound 0.003 µM); 0.84 with Dabrafenib + OSI-027 (first compound 0.009487 µM); 0.771 with Dabrafenib + OSI-027 (first compound 0.03 µM); 0.705 with Dabrafenib + OSI-027 (first compound 0.09487 µM); 0.801 in the test with Dabrafenib + OSI-027 (first compound 0.3 µM).

PC-14: the relative viability with VX-702 + Alpelisib (first compound 0.02 µM) amounted to 1.05; with VX-702 + Alpelisib (first compound 0.2 µM), 0.912; with VX-702 + Alpelisib (first compound 0.6325 µM) it was 0.927; with VX-702 + Alpelisib (first compound 2 µM), 1.01; with Dabrafenib + Tozasertib (first compound 0.009487 µM) it was 0.631; with Dabrafenib + Tozasertib (first compound 0.03 µM), 0.647. For the same cell line, the relative viability in the test with Dabrafenib + Tozasertib (first compound 0.09487 µM) was determined as 0.527; in the test with Dabrafenib + Tozasertib (first compound 0.3 µM), 0.624; with Dabrafenib + AZD7762 (first compound 0.003 µM) it was 0.0746; with Dabrafenib + AZD7762 (first compound 0.009487 µM) it was 0.375; with Dabrafenib + AZD7762 (first compound 0.03 µM) it was 0.363; with Dabrafenib + AZD7762 (first compound 0.09487 µM), 0.297. For the same cell line, the relative viability with Dabrafenib + AZD7762 (first compound 0.3 µM) amounted to 0.414; with Dabrafenib + OSI-027 (first compound 0.003 µM), 0.438; with Dabrafenib + OSI-027 (first compound 0.009487 µM), 1.13; in the test with Dabrafenib + OSI-027 (first compound 0.03 µM), 0.775; in the test with Dabrafenib + OSI-027 (first compound 0.09487 µM), 0.804; in the test with Dabrafenib + OSI-027 (first compound 0.3 µM), 0.794.

RERF-LC-KJ: the relative viability amounted to 0.969 with VX-702 + Alpelisib (first compound 0.02 µM); 0.69 in the test with VX-702 + Alpelisib (first compound 0.2 µM); 0.8 with VX-702 + Alpelisib (first compound 0.6325 µM); 0.794 with VX-702 + Alpelisib (first compound 2 µM); 0.484 with Dabrafenib + Tozasertib (first compound 0.003 µM); 0.593 with Dabrafenib + Tozasertib (first compound 0.009487 µM). Moreover, the relative viability amounted to 0.581 with Dabrafenib + Tozasertib (first compound 0.03 µM); 0.456 with Dabrafenib + Tozasertib (first compound 0.09487 µM); 0.591 with Dabrafenib + Tozasertib (first compound 0.3 µM); 0.871 with Dabrafenib + AZD7762 (first compound 0.003 µM); 1.01 in the test with Dabrafenib + AZD7762 (first compound 0.009487 µM); 0.907 in the test with Dabrafenib + AZD7762 (first compound 0.03 µM). The relative viability worked out at 0.916 with Dabrafenib + AZD7762 (first compound 0.09487 µM); 1.35 with Dabrafenib + AZD7762 (first compound 0.3 µM); 0.565 with Dabrafenib + OSI-027 (first compound 0.003 µM); 0.767 in the test with Dabrafenib + OSI-027 (first compound 0.009487 µM); 0.615 in the test with Dabrafenib + OSI-027 (first compound 0.03 µM); 0.68 with Dabrafenib + OSI-027 (first compound 0.09487 µM). Further, the relative viability with Dabrafenib + OSI-027 (first compound 0.3 µM) was found to be 0.731.
